# Source: article PMC6017357, “In Vitro Inhibitory Effects of Synthetic Cannabinoid EAM-2201 on Cytochrome P450 and UDP-Glucuronosyltransferase Enzyme Activities in Human Liver Microsomes” (Molecules : A Journal of Synthetic Chemistry and Natural …, 2018)
# Target: T1, UGT1A9 (Homo sapiens, UniProt O60656)
# T1 construct: ultrapooled human liver microsomes (0.2 mg/mL), 5 mM UDPGA; from tissue; host or cells: ultrapooled human liver microsomes
# T1 sequence (O60656 26-530): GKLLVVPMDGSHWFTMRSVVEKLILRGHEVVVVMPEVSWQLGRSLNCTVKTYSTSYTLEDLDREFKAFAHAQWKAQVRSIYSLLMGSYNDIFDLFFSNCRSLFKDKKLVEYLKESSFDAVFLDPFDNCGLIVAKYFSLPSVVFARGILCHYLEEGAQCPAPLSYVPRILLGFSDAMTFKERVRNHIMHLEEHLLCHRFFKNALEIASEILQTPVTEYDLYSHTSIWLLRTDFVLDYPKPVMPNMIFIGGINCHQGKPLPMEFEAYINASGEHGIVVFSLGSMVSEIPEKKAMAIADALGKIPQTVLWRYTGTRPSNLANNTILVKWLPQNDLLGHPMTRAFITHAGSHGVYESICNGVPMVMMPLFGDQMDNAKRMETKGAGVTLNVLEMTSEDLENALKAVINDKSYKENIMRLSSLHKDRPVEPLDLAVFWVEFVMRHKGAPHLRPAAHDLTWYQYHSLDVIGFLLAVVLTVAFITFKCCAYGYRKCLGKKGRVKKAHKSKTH
# Assay: UGT1A9-catalyzed mycophenolic acid glucuronidation in human liver microsomes
# Assay type: in vitro ADME
# Details: at 50 µM
# Protocol: The inhibitory effects of EAM-2201 on UGT1A1, UGT1A3, UGT1A4, UGT1A6, UGT1A9 and UGT2B7 were evaluated using LC-MS/MS and the cocktail of UGT substrates as previously described. Each incubation mixture was prepared in a final volume of 100 µL as follows: ultrapooled human liver microsomes (0.2 mg/mL), 5 mM UDPGA, 10 mM magnesium chloride, alamethicin (25 µg/mL), 50 mM Tris buffer (pH 7.4), various concentrations of EAM-2201 in DMSO (final concentrations of 1–50 µM, 0.5% DMSO) and the UGT enzyme-specific substrates of two cocktail sets (set A: 0.5 µM SN-38, 2 µM chenodeoxycholic acid and 0.5 µM trifluoperazine; set B: 1 µM N-acetylserotonin, 0.2 µM mycophenolic acid and 1 µM naloxone, acetonitrile content, 0.5%). […] Supernatant from sets A and B (50 µL of each) was mixed and aliquots (5 µL) were analyzed by LC-MS/MS. […]
# The metabolites formed from the six UGT cocktail substrates were simultaneously measured using LC-MS/MS [41]. […] Each metabolite was quantified via SRM in the negative ion mode: chenodeoxycholic acid 24-acyl-β-glucuronide, 567.2 > 391.0; mycophenolic acid glucuronide, 495.2 > 318.9; and propofol glucuronide (IS), 353.3 > 177.1; and in the positive ion mode: SN-38 glucuronide, 569.0 > 393.0; trifluoperazine glucuronide, 584.2 > 408.1; N-acetylserotonin-β-D-glucuronide, 395.2 > 219.0; naloxone 3-β-D-glucuronide, 504.0 > 310.0; and meloxicam (IS), 352.0 > 115.1. […]
structure (smiles),measurement,value
"CCc1ccc(C(=O)c2cn(CCCCCF)c3ccccc23)c2ccccc12 [EAM-2201, (4-ethyl-1-naphthalenyl)[1-(5-fluoropentyl)-1H-indol-3-yl]-methanone]",inhibition of UGT1A9-catalyzed mycophenolic acid glucuronidation,negligibly inhibited
